Earlier results on 2 compounds are cited in US5122608A, “Method for the preparation of substituted and unsubstituted 2,3-pyridine and quinolinedicarboxylic acids” (priority 1990, dated 1992).

Broadly, the pKa is the negative logarithm of the acid dissociation constant.

The conditions of this series: ionization constant; representative mineral and organic acids.

Consider `O=C(O)C(Cl)(Cl)Cl` [Trichloroacetic], for which the pKa is recorded as 0.5. In the case of `CCc1ccc(S(=O)(=O)O)cc1` [p-Ethylbenzene sulfonic], the pKa is recorded as 0.9.
